Results as given in patent US8653274B2, “Compounds suitable as precursors to compounds that are useful for imaging amyloid deposits” (AstraZeneca AB, priority 2008, dated 2014).

Molecular target: amyloid deposits (Homo sapiens, UniProt P05067)
Assay: competition binding assay described in WO2007/086800
Details: unlabeled compound

Chain of amyloid deposits (P05067 672-711 limits assumed): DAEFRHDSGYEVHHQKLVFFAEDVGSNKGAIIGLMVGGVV

IC50: 13 nM
Compound: CNc1ccc(-c2cc3cc(O)ccc3o2)c(F)n1 [2-(2-Fluoro-6-methylamino-pyridin-3-yl)-benzofuran-5-ol]
